Test results taken from patent US20240299384A1, “METHODS FOR TREATING PULMONARY HYPERTENSION IN PATIENTS WITH LEFT VENTRICULAR ASSIST DEVICE IMPLANTATION” (ACTELION PHARMACEUTICALS LTD, priority 2021, published 2024).

Assays:
[1] = humans, cited from earlier work
[2] = tested on: patients with PH post-LVAD implantation; assay: Phase 2 study in PH post-LVAD implantation: adverse events (Safety Set); format: in vivo
Description: This is a double-blind, placebo-controlled, multicenter, parallel-group Phase 2 study assessing the efficacy and safety of macitentan in PH post-LVAD implantation. Approximately 57 adult patients with PH post-LVAD implantation were randomized (1:1) to receive either macitentan 10 mg, or matching placebo, once daily orally.
• Treatment-emergent AEs up to 30 days after treatment discontinuation. • AEs leading to premature discontinuation of treatment. • Death up to 30 days after treatment discontinuation. • Treatment-emergent SAEs up to 30 days after treatment discontinuation. • Change from Baseline to EOT in vital signs. • Occurrence of liver function test (ALT and/or AST) abnormality (≥3×ULN; ≥3 and <5×ULN; ≥5 and <8×ULN; ≥8×ULN) up to EOT. • Occurrence of ALT and/or AST abnormality ≥3×ULN associated with bilirubin ≥2×ULN up to EOT. • Proportion of patients with treatment-emergent hemoglobin abnormality (<10.0 g/dL, and <8.0 g/dL) as compared to Baseline up to EOT. • Treatment-emergent marked laboratory abnormalities up to EOT.
An AE is any adverse change, i.e., any unfavorable and unintended sign, including an abnormal laboratory finding, symptom, or disease that occurs in a patient. AEs include: • Exacerbation of a pre-existing disease. • Increase in frequency or intensity of a pre-existing episodic disease or medical condition. • Disease or medical condition detected or diagnosed even though it may have been present prior to the start of the treatment. • Continuous persistent disease or symptoms present at treatment start that worsen following the start. • Abnormal assessments, e.g., change on physical examination, ECG findings, if they represent a clinically significant finding that was not present at treatment start or worsened during the course of the treatment. • Laboratory test abnormalities if they represent a clinically significant finding, symptomatic or not, which was not present at treatment start or worsened during the course of the treatment or led to dose reduction, interruption or permanent discontinuation of treatment.
A treatment-emergent AE is any AE temporally associated with the use of treatment (from treatment initiation until 30 days after treatment discontinuation). Overdose, misuse, and abuse of the treatment may be considered an AE.
The intensity of clinical AEs is graded on a three-point scale-mild, moderate, severe. The three categories of intensity are defined as follows: • Mild: The event may be noticeable to the patient. […] Performance of daily activities may be influenced, and intervention may be needed. • Severe: The event may cause noticeable discomfort, and usually interferes with daily activities. The patient may not be able to continue, and treatment or intervention is usually needed.
An SAE is defined by the ICH guidelines as any AE fulfilling at least one of the following criteria: • Fatal. • Life-threatening: refers to an event in which the patient was at risk of death at the time of the event.
Safety Set (SS): The SS includes all patients receiving at least one dose of drug in the treatment period.
A treatment-emergent AE is any AE temporally associated with the use of a treatment. The number and percentage of patients experiencing treatment-emergent AEs and SAEs at least once are tabulated by treatment group and by: • MedDRA SOC and individual preferred term within each SOC, in descending order of incidence. • Frequency of patients with events coded with the same preferred term, in descending order of incidence.

[3] = AEs leading to treatment discontinuation, SS, N = 28
[4] = SMQs for anemia, hypotension, edema/fluid retention, 10 mg once daily, N = 28
[5] = frequently reported AEs, SS, N = 28
[6] = treatment-emergent, 10 mg once daily, N = 28

## CCCNS(=O)(=O)Nc1ncnc(OCCOc2ncc(Br)cn2)c1-c1ccc(Br)cc1 [Macitentan, propylsulfamic acid [5-(4-bromo-phenyl)-6-[2-(5-bromo-pyrimidin-2-yloxy)-ethoxy]-pyrimidin-4-yl]-amide]
[1]; 10 mg oral dose once a day
  time to steady state: third day
[1]
  absorption into the plasma: absorbed slowly
  half-life: about 16 hours
[2]; 10 mg once daily, N = 28
  Any Treatment-Related Adverse Event Leading to Treatment Discontinuation, number of patients: 2
  Any Treatment-Related Adverse Event Leading to Treatment Discontinuation, percent of patients: (7.1) %
[2]; [3]
  Acute kidney injury, number of patients: 1
  Acute kidney injury, percent of patients: 3.6%
  Anaemia, number of patients: 0
  Blood alkaline phosphatase increased, number of patients: 1
  Blood alkaline phosphatase increased, percent of patients: 3.6%
  Blood and lymphatic system disorders, number of patients: 0
  Blood bilirubin increased, number of patients: 1
  Blood bilirubin increased, percent of patients: 3.6%
  Cardiac disorders, number of patients: 1
  Cardiac disorders, percent of patients: 3.6%
  Cerebral haemorrhage, number of patients: 1
  Cerebral haemorrhage, percent of patients: 3.6%
  General disorders and administration site conditions, number of patients: 1
  General disorders and administration site conditions, percent of patients: 3.6%
  Haemolysis, number of patients: 0
  Haemorrhagic stroke, number of patients: 0
  International normalised ratio increased, number of patients: 1
  International normalised ratio increased, percent of patients: 3.6%
  Investigations, number of patients: 1
  Investigations, percent of patients: 3.6%
  Liver function test increased, number of patients: 1
  Liver function test increased, percent of patients: 3.6%
  Nervous system disorders, number of patients: 1
  Nervous system disorders, percent of patients: 3.6%
  Oedema peripheral, number of patients: 1
  Oedema peripheral, percent of patients: 3.6%
  Renal and urinary disorders, number of patients: 1
  Renal and urinary disorders, percent of patients: 3.6%
  Right ventricular failure, number of patients: 1
  Right ventricular failure, percent of patients: 3.6%
[2]; [4]
  Any Events of Interest, number of patients: 10
  Any Events of Interest, percent of patients: (35.7) %
[2]; SS, 10 mg once daily, N = 28
  Any Adverse Event Leading to Treatment Discontinuation, number of patients: 4
[2]; early post-LVAD population, 10 mg once daily
  tolerability in words: well tolerated
[2]; [5]
  Acute kidney injury, number of patients: 3
  Acute kidney injury, percent of patients: (10.7) %
  Anticoagulation drug level below therapeutic, number of patients: 4
  Anticoagulation drug level below therapeutic, percent of patients: (14.3) %
  Complication associated with device, number of patients: 0
  Cystatin C increased, number of patients: 3
  Cystatin C increased, percent of patients: (10.7) %
  Dehydration, number of patients: 0
  Dizziness, number of patients: 4
  Dizziness, percent of patients: (14.3) %
  Dyspnoea, number of patients: 4
  Dyspnoea, percent of patients: (14.3) %
  Fall, number of patients: 0
  Fatigue, number of patients: 4
  Fatigue, percent of patients: (14.3) %
  Hyperkalaemia, number of patients: 3
  Hyperkalaemia, percent of patients: (10.7) %
  Hypotension, number of patients: 3
  Hypotension, percent of patients: (10.7) %
  N-terminal prohormone brain natriuretic peptide increased, number of patients: 4
  N-terminal prohormone brain natriuretic peptide increased, percent of patients: (14.3) %
  Oedema peripheral, number of patients: 4
  Oedema peripheral, percent of patients: (14.3) %
  Ventricular tachycardia, number of patients: 1
  Ventricular tachycardia, percent of patients: (3.6) %
  Vomiting, number of patients: 2
  Vomiting, percent of patients: (7.1) %
[2]; post-LVAD implantation patients, 10 mg once daily
  safety profile in words: favorable safety profile
[2]; serious AEs, N = 28
  Acute kidney injury, number of patients: 2
  Acute kidney injury, percent of patients: (7.1) %
  Anticoagulation drug level below therapeutic level, number of patients: 3
  Anticoagulation drug level below therapeutic level, percent of patients: (10.7) %
  Complication associated with device, number of patients: 0
  Dehydration, number of patients: 0
  Gastrointestinal hemorrhage, number of patients: 0
  Pleural effusion, number of patients: 2
  Pleural effusion, percent of patients: (7.1) %
  Right ventricular failure, number of patients: 2
  Right ventricular failure, percent of patients: (7.1) %
  Septic shock, number of patients: 2
  Septic shock, percent of patients: (7.1) %
  Ventricular tachycardia, number of patients: 0
[2]; [6]
  Any Adverse Event With Outcome of Death, number of patients: 1
  Any Adverse Event With Outcome of Death, percent of patients: (3.6) %
  Any Adverse Event, number of patients: 26
  Any Adverse Event, percent of patients: (92.9) %
  Any Serious Adverse Event, number of patients: 16
  Any Serious Adverse Event, percent of patients: (57.1) %
  Any Severe Adverse Event, number of patients: 9
  Any Severe Adverse Event, percent of patients: (32.1) %
  Any Severe Treatment-Related Adverse Event, number of patients: 2
  Any Severe Treatment-Related Adverse Event, percent of patients: (7.1) %
  Any Treatment-Related Adverse Event, number of patients: 6
  Any Treatment-Related Adverse Event, percent of patients: (21.4) %
  Any Treatment-Related Serious Adverse Event, number of patients: 2
  Any Treatment-Related Serious Adverse Event, percent of patients: (7.1) %
